Data reported in paper PMC4788259 (PLoS Neglected Tropical Diseases, 2016).
Values joined by “and” are separate entries in the source; they are usually repeats but may differ in a detail not shown here. Equal entries are not always repeated. Where two headings read alike, the source gives them in different places.

Key:
[1] = tested on: E. multilocularis metacestodes; assay: PGI assay: phosphoglucose isomerase release from damaged metacestodes; assay type: cell-based, Echinococcus multilocularis; conditions: 5 days; for activity in PGI assay at 1 μM: triplicates; for EC50: PGI assay, 10-0.01 μM
Procedure, shortened: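 Damage readout: PGI enzyme release after 5-day in vitro culture of 2–4 mm metacestode vesicles (H95 strain, from i.p.-infected BALB/c mice) with compound. Primary screen: 10 μM per single well, 0.1% DMSO negative control. EC50 calculated from PGI release data.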

[2] = tested on: newly transformed schistosomula; set-up: method as in PMID 24416463; conditions: in vitro; read-out: IC50 against newly transformed schistosomula; cited from earlier work
[3] = tested on: adult worms; set-up: method as in PMID 24416463; conditions: in vitro; read-out: IC50 against adult worms; cited from earlier work
[4] = tested on: S. mansoni; set-up: method as in PMID 24416463; conditions: cited from earlier work
[5] = tested on: E. multilocularis metacestodes; assay: Peroral treatment of secondary infected mice; assay type: in vivo, BALB/c mice; conditions: p.o. gavage 5 days per week, 4 weeks, MMV665807 100 mg/kg, ABZ 200 mg/kg
Protocol: (§1) Animals were kept at a temperature-controlled 12/12 hours light cycle with food and water ad libitum and according to the Swiss Animal protection law. For the in vivo treatment of MMV665807, BALB/c mice (from Charles River, Sulzfeld, Germany), at the age of 8 weeks with an average body weight of 20 g, were i.p. infected with 200 μL metacestodes vesicle suspension. This material was prepared from in vitro-cultured metacestodes (strain H95), which were disintegrated by pressing the parasites through a 1 mL pipette tip. Parasite tissue was centrifuged at 500 x g for 5 min at room temperature before being mixed 1:1 in PBS.
Peroral (p.o.) drug treatments by gavage were initiated 6 weeks post-infection and performed as follows: group 1 received no treatment at all; group 2 received 100 μL corn oil containing 7.8 μL DMSO; group 3 mice were treated with 100 μL corn oil containing albendazole (ABZ) in 7.8 μL DMSO, in order to obtain a dosage of 200 mg/kg body weight (positive control); group 4 was treated with 100 μL corn oil containing MMV665807 in 7.8 μL DMSO, resulting in 100 mg/kg body weight. All mice were treated for a total time period of 4 weeks, with consecutive treatment during 5 days per week, and interruption of treatment for 2 days each week. At the end of the treatment, all mice were sedated by isoflurane and subsequently euthanized by CO2. All parasite tissue was resected, placed into a petri dish, and the parasite mass was weighed. Statistical analysis of the in vivo experiments was performed in R version 3.0.1. The data distribution was checked by Shapiro-Wilk test and eventual differences between treatment groups identified by the non-parametric Kruskal-Wallis test. P values were calculated by the non-parametric Wilcoxon […] test with Bonferroni-adjustment. Boxplot visualizations of the data were prepared in Microsoft Excel 2010.

[6] = tested on: E. multilocularis metacestodes; assay: Intraperitoneal treatment of secondary infected mice; assay type: in vivo, BALB/c mice; conditions: 4 weeks, MMV665807 100 mg/kg i.p. three times per week, ABZ 200 mg/kg p.o. 5 days per week
Protocol: as §1
I.p. drug treatments were initiated 2 weeks post-infection. 32 infected mice were randomly separated into 4 groups with 2 times 4 animals per cage. All animals were exposed to 4 weeks of treatment, with five consecutive days of drug application followed by a 2 day recovery period without treatment. Treatment groups were defined as follows: group 1 (control) received 50 μL of corn oil by gavage on 5 days per week, and an i.p. injection of DMSO in corn oil (4 μL DMSO and 46 μL corn oil) on three days per week; group 2 also received corn oil by gavage 5 days per week, and an i.p. injection of MMV665807 (100 mg/kg in 4 μL DMSO plus 46 μL corn oil) three times per week; group 3 was treated with the standard albendazole treatment (albendazole in corn oil, 200 mg/kg/ day for 5 days each week) and also received an i.p. injection of 4 μl DMSO suspended in 46 μl corn oil three times per week; group 4 received a combined treatment consisting of albendazole in corn oil by gavage (200 mg/kg/day 5 days per week) and an i.p. injection of MMV665807 (100 mg/kg three times per week). After 4 weeks of treatment, mice were euthanized and the parasite mass resected and measured as described above. Statistical analyses were performed as described above.

[7] = tested on: human foreskin fibroblasts (HFF); assay: alamarBlue viability assay on HFF; assay type: cell-based; conditions: Fibroblast, 120 h, 5 days
Protocol: (§2) For testing growth inhibitory effects on confluent host cells, cells were seeded in 96-well plates (10,000 cells per well for HFF and 50,000 cells per well for RH cells), in DMEM containing FBS (10%) and antibiotics (100 U penicillin, 100 μg streptomycin and 0.25 μg amphotericin B per mL medium) and were cultured overnight at 37°C, 5% CO2. Thereafter the drugs (10 μM) were added and diluted in a serial 1:2 dilutions down to 20 nM. The concentration range was further adjusted in subsequent setups. For testing growth inhibitory effects on proliferating cells, cells were seeded at 1,000 (HFF) and 5,000 (RH) cells per well, and were allowed to attach for 5 hours at 37°C before addition of the drugs. After 5 days of culture, cell viability was assessed by alamarBlue assay.

[8] = tested on: Reuber rat hepatoma (RH) cells; assay: alamarBlue viability assay on RH cells; assay type: cell-based; conditions: 120 h, 5 days
Protocol: as §2

[9] = tested on: E. multilocularis germinal layer cells; assay: CellTiter-Glo viability assay on germinal layer cell cultures; assay type: cell-based; conditions: Echinococcus multilocularis, 120 h, 5 days, read-out: E.m. GL cells (IC50)
Protocol: To assess the effects of MMV665807 on the viability of parasite cells, germinal layer cells were extracted according to Spiliotis et al. After overnight aggregate formation, 15 units of cells were distributed to a black 384 well plate (Nunc, Thermo Scientific, Reinach, Switzerland) in 12.5 μL medium. A concentration series (final concentrations of 3, 1, 0.3, 0.1, 0.03, 0.01 μM) of MMV665807, MMV665794 and mefloquine were prepared in medium and added 1:2 to the cells. For mefloquine, the concentration range was adjusted in a subsequent setup up to 100 μM. As negative control, DMSO was added accordingly. After 5 days of culture at 37°C under humid nitrogen atmosphere, 25 μL CellTiter-Glo (Promega, Dübendorf, Switzerland) including 1% TritonX-100 was added. Plates were incubated for 15 minutes on a shaker at room temperature and complete disruption of all cell aggregates was checked for before measurement of luminescence on a 2300 Enspire multilabel reader (Perkin-Elmer). Mean values and standard deviations were calculated and DMSO values set to 100% viability. The IC50 value was calculated in Microsoft Excel 2010 after logit-log transformation and averages as well as standard deviations of four independent setups were calculated.

[10] = tested on: E. multilocularis metacestodes; conditions: PGI assay; cited from earlier work
[11] = tested on: E. multilocularis metacestode vesicles; assay: microbe, parasite or virus in culture; conditions: Echinococcus multilocularis, 288 h, read-out: mean viability

With Brc1ccc(Nc2nc3ccccc3nc2Nc2ccc(Br)cc2)cc1 [MMV007224] as the compound, how does the “activity in PGI assay at 1 μM” value [1] read?
The value was “lost its activity”.

What about the IC50 [2] of the same compound?
Its IC50 is over 33 µM.

And the IC50 [3]?
The IC50 was 0.8 µM.

What does the source list for O=C(Nc1ccc(Cl)c(Cl)c1)Nc1ccc(Cl)c(Cl)c1 [MMV665852]?
activity in PGI assay at 1 μM [1]: no activity at all; PGI (% of DB1127 at 10 uM) ([1]; 10 μM, single wells, relative to DB1127 (10 μM)): 14.8% and 14.75%; IC50 [2]: 4.7 µM; IC50 [3]: 0.8 µM; worm burden reduction ([4]; 80 mg/kg): 46%; worm burden reduction ([4]; 400 mg/kg): 52.5%; worm burden reduction ([4]; 4x100 mg/kg): 31.2%

With CCCSc1ccc2nc(NC(=O)OC)[nH]c2c1 [ABZ, albendazole, reference compound] as the compound, how does the “parasite weight compared to control” value ([5]; start 6 weeks post-infection) read?
The value was “significant reduction”.

And the “adverse effects during treatment” value [5]?
The value was “No adverse effects”.

What about the “parasite weight compared to placebo group” value ([6]; start 2 weeks post-infection) of the same compound?
Its value is “significantly lower”.

What about the “adverse effects during treatment” value [6] of the same compound?
Its value is “No adverse effects”.

For FC(F)(F)c1cccc(Nc2nc3ccccc3nc2Nc2cccc(C(F)(F)F)c2)c1 [MMV665794], which EC50 ([1]; Echinococcus multilocularis, 120 h) is on record?
Its EC50 is under 5 µM.

And the EC50 [1]?
Its EC50 is 2.8 ± 0.53 µM.

And the IC50 ([7]; confluent cells, read-out: Confluent HFF (IC50))?
Its IC50 is 21.5 ± 0.17 µM.

And the IC50 ([7]; proliferating cells, read-out: Preconfluent HFF (IC50))?
Its IC50 is 5.9 ± 0.21 µM.

And the IC50 ([8]; confluent cells, read-out: Confluent RH (IC50))?
Its IC50 is 0.8 ± 0.15 µM.

What about the IC50 ([8]; proliferating cells, read-out: Preconfluent RH (IC50)) of the same compound?
The IC50 was 1.1 ± 0.18 µM.

What about the IC50 [9] of the same compound?
The IC50 was 5.8 ± 0.16 µM.

And the IC50 [2]?
Its IC50 is over 33.3 µM.

And the IC50 [3]?
Its IC50 is 1.1 µM.

Which IC50 [9] does the source give for OC(c1cc(C(F)(F)F)nc2c(C(F)(F)F)cccc12)C1CCCCN1 (stereo not drawn) [Mefloquine, mefloquine, reference compound] here?
The IC50 was 13.8 ± 0.33 µM.

What about the EC50 [10] of the same compound?
The EC50 was over 30 µM.

And the viability at 0.1 µM [11]?
Its viability at 0.1 µM is 59.7%.

And the viability at 0.2 µM [11]?
Its viability at 0.2 µM is 74.3%.

What about the viability at 0.4 µM [11] of the same compound?
Its viability at 0.4 µM is 67.9%.

And the viability at 0.8 µM [11]?
The viability at 0.8 µM was 70.9%.

And the viability at 1.6 µM [11]?
The viability at 1.6 µM was 75%.

And the viability at 3.1 µM [11]?
The viability at 3.1 µM was 63.5%.

What about the viability at 6.3 µM [11] of the same compound?
The viability at 6.3 µM was 65.8%.

What about the viability at 12.5 µM [11] of the same compound?
Its viability at 12.5 µM is 79.4%.

What about the viability at 25 µM [11] of the same compound?
The viability at 25 µM was 83.1%.

What about the viability at 50 µM [11] of the same compound?
Its viability at 50 µM is 5.25%.

And the viability at 100 µM [11]?
The viability at 100 µM was 8.49%.
